# From patent US20230103444A1 (The Regents of the University of Colorado, a Body Corporate, priority 2020, published 2023)
# Entries after “also recorded” stand apart in the source; their conditions may differ.
# How the values were obtained:
# [1] = biological target: T1, cat-CHD1L ATPase (Homo sapiens, UniProt Q86WJ1); assay: CHD1L ATPase assay with recombinant catalytic domain (cat-CHD1L); assay type: biochemical; settings: for inhibition at 20 µM: confirmed HTS hits, HTS at 20 μM, read-out: inhibition against cat-CHD1L ATPase; for IC50: units given with the values (nM, μM), read-out: activity in dose response studies against cat-CHD1L ATPase (IC50, FIG. 1A)
# T1 construct: inferred from Ni-NTA / imidazole purification; made in house; host or cells: E. coli Rosetta 2 (DE3) pLysS; constructs were a gift from Helena Berglund, Karolinska Institute
# T1 sequence (Q86WJ1 16-611 limits assumed): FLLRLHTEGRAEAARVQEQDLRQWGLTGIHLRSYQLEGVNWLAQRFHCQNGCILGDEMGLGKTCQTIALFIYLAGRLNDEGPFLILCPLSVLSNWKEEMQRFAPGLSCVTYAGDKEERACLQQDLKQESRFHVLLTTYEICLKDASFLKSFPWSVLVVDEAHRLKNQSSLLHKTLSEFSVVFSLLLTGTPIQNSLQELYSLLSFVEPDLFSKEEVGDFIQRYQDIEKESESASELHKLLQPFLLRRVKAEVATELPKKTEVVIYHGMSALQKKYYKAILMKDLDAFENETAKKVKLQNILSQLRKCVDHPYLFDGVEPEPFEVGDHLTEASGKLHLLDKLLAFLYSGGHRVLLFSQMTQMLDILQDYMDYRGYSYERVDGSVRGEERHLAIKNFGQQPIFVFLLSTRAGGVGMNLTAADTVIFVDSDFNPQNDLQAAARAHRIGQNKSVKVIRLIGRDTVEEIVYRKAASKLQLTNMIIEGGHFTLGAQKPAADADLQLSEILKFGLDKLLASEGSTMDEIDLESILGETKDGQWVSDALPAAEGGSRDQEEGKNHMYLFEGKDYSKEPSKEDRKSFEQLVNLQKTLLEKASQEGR
# How it was run: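 Recombinant cat-CHD1L (100 nM) was incubated with 200 nM c-Myc DNA or mononucleosome in 50 mM Tris pH 7.5, 50 mM NaCl, 1 mM DTT and 5% glycerol, with 10 μM ATP, for 1 h at 37 °C. Background came from no-enzyme wells, with 1% DMSO and 10 mM EDTA as controls.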
# [2] = system: PDTO CRC102; assay: PDTO viability assay (CellTiter-Blue); assay type: cell-based; settings: Homo sapiens, 72 h, read-out: cytotoxicity EC50
# Description: CRC patient tumor tissues were obtained from the UCCC GI tissue bank and expanded following established protocols. [Morin et al., 1997]. Briefly, cells were seeded at 5,000 cells per well in 96-well plates and cultured by established methods [Franken et al., 2006] allowing PDTO formation over 72 h. […] PDTO cell viability was measured using CellTiter-Blue® reagent (Promega, Madison, Wis.). Media (80 μL) was aspirated from wells and 80 μL of the reagent was added and incubated for 4 h and cell viability was measured by fluorescence intensity using excitation 560 excitation and 590 emission.
# [3] = system: SW620 tumor xenografts
# Description: In vivo studies. […] Body weight and tumor volumes were monitored 2×/week. […] In addition, irinotecan was administered i.p. at 50 mg/kg.
# [4] = system: TCF-transcription; assay: TOPflash TCF-transcriptional reporter assay; assay type: cell-based, human; settings: TOPflash reporter in CRC cell lines (SW620, HCT116, DLD1CHD1L-OE), 24 h; listed as 8
# Description: TOPflash assay (Millipore, Billerica, Mass.) was used to evaluate TCF transcriptional activity in CRC cells. A total of 20,000 cells per well were plated into 96-well white plates and transfected with TransIT®-LT1 transfection reagent (Mirus, Madison, Wis.). Cells were incubated with transfection mix for 24 h. Next, cells were washed with phosphate-buffered solution (PBS) and a 1:1 ratio of PBS:ONE-Glo™ luciferase reagent Promega (Madison, Wis.) was added and the luminescence was detected within 10 min. A duplicate experiment was conducted to measure cell viability using CellTiter-Glo® Luminescent Cell Viability Assay (Promega, Madison, Wis.), which was used to normalize TOPflash luminescence to obtain the fold change in TCF activity. Experiments were replicated 2× (n=3 for each experiment).
# TCF-transcriptional Reporter Assay. […] Afterwards, cells from the white solid bottom plate were carefully washed with PBS and a 1:1 ratio of PBS:One-Glo Luciferase Assay System (Promega) was added, incubated for 10 min, and luminescence was quantified on Envision plate reader (PerkinElmer) for TCF-activity. As a control, cells from the clear plate were lysed with Mammalian Cell Lysis Buffer (Promega) and the total protein from each well was quantified with BCA assay (ThermoFisher).
SMILES,inhibition at 20 µM [1] [%],IC50 [1] [nM],EC50 [2] [µM],"tumor volume, combination with irinotecan ([3]; compound 6 5 mg/kg i.p. 2×/day + irinotecan 60 mg/kg i.p. 1×/week, 28 days, vs single agents or control)","tumor volume after the last treatment, combination with irinotecan ([3]; compound 6 + irinotecan vs irinotecan alone, last treatment day 28)","survival of tumor-bearing mice, combination with irinotecan ([3]; compound 6 + irinotecan, compared to vehicle and single agents)","survival of tumor-bearing mice, compound alone ([3]; compound 6 alone, compared to vehicle)","inhibition of TCF-transcription, in words [4]"
COc1ccc(-c2nc(S(=O)(=O)c3ccccc3)c(S(C)(=O)=O)o2)cc1 [Compound 5],> 50,900 to 5000,,,,,,
"Cc1cc(Nc2ccc(NC(=O)Cc3cccs3)cc2)nc(N2CCCC2)n1 [Compound 6, N-(4-((6-methyl-2-(pyrrolidin-1-yl)pyrimidin-4-yl)amino)phenyl)-2-(thiophen-2-yl)acetamide]",> 50,900 to 5000,11.6 ± 2,significantly inhibit colon SW620 tumor xenografts to almost no tumor volume,significantly inhibits colon SW620 tumors to almost no tumor volume beyond the last treatment,significantly increases the survival,significantly increases the survival,
"Cc1cc(Nc2ccc(NC(=O)c3c[nH]c4ccccc34)cc2)nc(N2CCCC2)n1 [Compound 6.3, N-(4-((6-methyl-2-(pyrrolidin-1-yl)pyrimidin-4-yl)amino)phenyl)-1H-indole-3-carboxamide]",,,,,,,,potent low μM dose-dependent inhibition; also recorded: more potent dose dependent inhibition
